Results on five compounds are retold here after ChEMBL document CHEMBL2074072, “Transport of glutathione, glucuronate, and sulfate conjugates by the MRP gene-encoded conjugate export pump” (Cancer Res, 1996).

The data set addresses Multidrug resistance-associated protein 1 (Homo sapiens, UniProt P33527). Put plainly: TP_TRANSPORTER: uptake in membrane vesicle from MRP1-expressing HeLa cells. The class given is functional, cell membranes.

Sequence of Multidrug resistance-associated protein 1 (P33527 whole entry): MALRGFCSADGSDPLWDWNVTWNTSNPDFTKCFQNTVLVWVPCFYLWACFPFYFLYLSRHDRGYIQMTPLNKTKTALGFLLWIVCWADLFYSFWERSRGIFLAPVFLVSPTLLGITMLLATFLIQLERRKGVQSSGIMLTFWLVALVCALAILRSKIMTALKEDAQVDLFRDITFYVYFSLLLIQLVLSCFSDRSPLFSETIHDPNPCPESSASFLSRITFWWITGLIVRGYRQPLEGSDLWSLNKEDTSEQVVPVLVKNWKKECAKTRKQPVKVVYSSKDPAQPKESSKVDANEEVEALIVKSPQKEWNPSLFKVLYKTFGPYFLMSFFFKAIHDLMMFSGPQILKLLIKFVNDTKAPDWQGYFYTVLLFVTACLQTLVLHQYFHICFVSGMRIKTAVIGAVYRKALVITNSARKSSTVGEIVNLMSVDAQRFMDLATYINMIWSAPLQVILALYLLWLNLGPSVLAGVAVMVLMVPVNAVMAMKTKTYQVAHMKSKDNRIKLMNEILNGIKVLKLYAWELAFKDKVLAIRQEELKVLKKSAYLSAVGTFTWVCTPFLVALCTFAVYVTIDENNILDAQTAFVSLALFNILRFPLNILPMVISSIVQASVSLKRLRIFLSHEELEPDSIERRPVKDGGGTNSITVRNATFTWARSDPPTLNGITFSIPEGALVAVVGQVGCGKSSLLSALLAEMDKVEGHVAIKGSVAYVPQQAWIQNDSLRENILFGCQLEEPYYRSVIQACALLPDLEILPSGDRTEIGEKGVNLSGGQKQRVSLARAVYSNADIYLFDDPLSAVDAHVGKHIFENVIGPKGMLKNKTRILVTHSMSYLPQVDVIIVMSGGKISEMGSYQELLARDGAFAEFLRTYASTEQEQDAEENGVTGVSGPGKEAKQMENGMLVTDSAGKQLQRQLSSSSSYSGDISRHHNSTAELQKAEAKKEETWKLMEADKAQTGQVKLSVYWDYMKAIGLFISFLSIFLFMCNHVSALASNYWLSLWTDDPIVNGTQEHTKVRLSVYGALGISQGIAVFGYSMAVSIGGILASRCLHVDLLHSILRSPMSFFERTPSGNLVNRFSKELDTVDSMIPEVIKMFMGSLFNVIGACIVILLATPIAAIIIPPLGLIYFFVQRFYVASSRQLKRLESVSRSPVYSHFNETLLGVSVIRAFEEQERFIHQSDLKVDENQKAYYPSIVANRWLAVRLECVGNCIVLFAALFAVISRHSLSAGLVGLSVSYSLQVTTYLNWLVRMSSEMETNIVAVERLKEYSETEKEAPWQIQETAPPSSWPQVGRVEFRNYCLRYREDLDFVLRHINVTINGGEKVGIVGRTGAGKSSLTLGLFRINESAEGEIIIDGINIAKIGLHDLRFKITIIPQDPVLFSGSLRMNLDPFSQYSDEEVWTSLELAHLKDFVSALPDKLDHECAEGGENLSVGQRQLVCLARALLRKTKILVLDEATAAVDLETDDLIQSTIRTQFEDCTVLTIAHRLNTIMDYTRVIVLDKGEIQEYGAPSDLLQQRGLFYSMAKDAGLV

For the compound `CCCCC/C=C\C\C=C/C=C/C=C/[C@@H](SC[C@H](NC(C)=O)C(=O)O)[C@@H](O)CCCC(=O)O`, the Activity result is “substrate [+]”.

For the compound `C[C@H](CCC(=O)O)[C@H]1CC[C@H]2[C@@H]3C[C@H](O[C@@H]4O[C@H](C(=O)O)[C@@H](O)[C@H](O)[C@H]4O)[C@@H]4C[C@H](O)CC[C@]4(C)[C@H]3CC[C@]12C` [6alpha-Glucuronosylhyodeoxycholate], the Activity entry is “substrate [+]”.

Consider `COc1cc([C@@H]2c3cc4c(cc3[C@@H](O[C@@H]3O[C@@H]5CO[C@@H](C)O[C@H]5[C@H](O)[C@H]3O)[C@H]3COC(=O)[C@H]23)OCO4)cc(OC)c1O[C@@H]1O[C@H](C(=O)O)[C@@H](O)[C@H](O)[C@H]1O` [ETOPOSIDE GLUCURONIDE], for which the Activity result is “substrate [+]”.

`CCCCC/C=C\C\C=C/C=C/C=C/[C@@H](SC[C@H](N)C(=O)O)[C@@H](O)CCCC(=O)O` [LEUKOTRIEN E4]: the Activity result is “substrate [+]”.

In the case of `CCCCC/C=C\C\C=C/C=C/C=C/[C@@H](SC[C@H](N)C(=O)NCC(=O)O)[C@@H](O)CCCC(=O)O` [LEUKOTRIENE D4], the Activity entry was “substrate [+]”.
